Measured values: patent US9150632B2 (Indiana University Research and Technology Corporation, priority 2009, dated 2015)
Non-standard residues stand in square brackets, D forms with d. Residues, ends and D or L forms follow the SMILES beside them. *: point of attachment. Palmitoyl = CCCCCCCCCCCCCCCC(=O)*; Aib = CC(C)(N)C(=O)O

Columns and labels:
glucagon receptor = target: T1, glucagon receptor (Homo sapiens, UniProt P47871); assay: Functional assay-cAMP synthesis, luciferase reporter in HEK293 cells, glucagon receptor; format: cell-based; details: for Glucagon Receptor % relative activity: activity relative to the native hormone at the indicated receptor; for EC50: cAMP induction, in vitro, as in Example 14
T1 construct: expressed in transfected cells; host or cells: HEK293
T1 sequence (P47871 26-477): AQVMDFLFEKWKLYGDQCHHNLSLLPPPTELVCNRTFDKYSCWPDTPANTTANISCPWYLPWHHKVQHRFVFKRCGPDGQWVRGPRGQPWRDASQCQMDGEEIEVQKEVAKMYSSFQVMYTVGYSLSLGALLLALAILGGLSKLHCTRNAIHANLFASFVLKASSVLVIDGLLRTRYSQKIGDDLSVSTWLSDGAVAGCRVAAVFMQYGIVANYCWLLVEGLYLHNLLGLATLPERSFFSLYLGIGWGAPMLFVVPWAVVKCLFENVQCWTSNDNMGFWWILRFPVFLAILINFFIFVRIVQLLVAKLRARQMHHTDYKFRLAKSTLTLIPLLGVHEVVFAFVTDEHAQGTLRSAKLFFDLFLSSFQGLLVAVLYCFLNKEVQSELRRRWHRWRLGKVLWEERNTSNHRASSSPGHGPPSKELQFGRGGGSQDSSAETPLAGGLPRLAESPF
Description: (§1) Peptide absorbance readings were obtained from UV Absorbance measurements at 280 nm on a Genesys 6 Spectrophotometer (Thermo Electron Corporation). Beer's Law was used to calculate solution concentrations based on the number of tryptophan and tyrosine residues in each analog. At the end of the incubation, 100 μL LucLite luminescence substrate reagent was added to each well, the plate sealed and shaken, and placed into a Wallac Trilux luminescence counter for cAMP detection.
(§2) HEK293 cells were co-transfected with the GcgR or GLP-1R cDNAs and a luciferase reporter gene-linked to a cAMP response element (CRE). […] The plate was incubated for 10 min in the dark and light output was quantified on a MicroBeta1450 liquid scintillation counter (Perkin-Elmer, Wellesley, Mass.).

GIP receptor = target: T2, GIP receptor (Homo sapiens, UniProt P48546); assay: Functional assay-cAMP synthesis, luciferase reporter in HEK293 cells, GIP receptor; format: cell-based; details: for GIP Receptor % relative activity: activity relative to the native hormone at the indicated receptor; for EC50: cAMP induction, in vitro, as in Example 14
T2 construct: expressed in transfected cells; host or cells: HEK293
T2 sequence (P48546 22-466): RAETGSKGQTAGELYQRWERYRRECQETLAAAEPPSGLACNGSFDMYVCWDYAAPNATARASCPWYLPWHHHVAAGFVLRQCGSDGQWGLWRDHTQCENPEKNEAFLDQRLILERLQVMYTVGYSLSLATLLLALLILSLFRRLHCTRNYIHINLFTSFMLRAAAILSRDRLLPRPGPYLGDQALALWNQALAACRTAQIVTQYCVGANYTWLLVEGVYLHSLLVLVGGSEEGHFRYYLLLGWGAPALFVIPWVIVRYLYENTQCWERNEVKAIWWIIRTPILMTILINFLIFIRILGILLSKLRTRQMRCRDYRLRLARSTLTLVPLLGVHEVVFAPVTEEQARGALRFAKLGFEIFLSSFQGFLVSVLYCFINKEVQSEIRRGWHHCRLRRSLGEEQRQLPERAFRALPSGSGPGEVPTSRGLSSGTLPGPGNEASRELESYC

GLP-1 receptor [1] = target: T3, GLP-1 receptor (Homo sapiens, UniProt P43220); details: for GLP-1 Receptor % relative activity: activity relative to the native hormone at the indicated receptor
T3 sequence (P43220 24-463, species assumed): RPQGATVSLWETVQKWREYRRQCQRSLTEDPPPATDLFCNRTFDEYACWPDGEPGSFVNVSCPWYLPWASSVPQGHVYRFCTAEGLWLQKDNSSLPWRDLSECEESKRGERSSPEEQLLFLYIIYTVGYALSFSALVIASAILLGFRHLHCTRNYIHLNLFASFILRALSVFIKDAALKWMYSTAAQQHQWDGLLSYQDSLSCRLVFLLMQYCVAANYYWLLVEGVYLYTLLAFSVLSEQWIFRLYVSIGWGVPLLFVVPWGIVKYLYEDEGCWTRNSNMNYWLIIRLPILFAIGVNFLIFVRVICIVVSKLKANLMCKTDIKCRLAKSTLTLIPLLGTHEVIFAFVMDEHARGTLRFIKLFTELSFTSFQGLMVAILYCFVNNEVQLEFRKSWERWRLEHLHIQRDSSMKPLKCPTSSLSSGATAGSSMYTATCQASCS
Description: as §1, §2

GLP-1 receptor [2] = target: T3, GLP-1 receptor; assay: cell-based
Description: as §1, §2

[3] = Body weight, body composition and food intake in diet-induced obesity (DIO) mice; format: in vivo; details: i.p. 15 or 70 nmol/kg, 7 days post-injection
Description: […] 6 mice per group with initial average body weight of 44 g were tested. Body weight, body composition, food intake, and blood glucose levels were determined periodically.
Body weight was measured before injection and at 1, 3, 5, and 7 days post-injection.
Changes in body weight of and food intake by the mice were measured 0, 1, 3, 5, 7, 8, 10, 12, and 14 days after injection. Blood glucose levels of the mice were monitored throughout the 14 days. Glucose tolerance tests were performed by injecting a 25% glucose in saline solution 1 hour or 24 hours after administration of the acylated or pegylated peptide and measuring blood glucose levels at −60, 0, 15, 30, 60, or 120 min after the glucose injection.
The acylated glucagon analogs were as follows:
C57BI/6 mice were obtained from Jackson Laboratories and fed a diabetogenic diet from Research Diets, a high sucrose diet with 58% kcal from fat. Mice were single or group-housed on a 12:12-h light-dark cycle at 22° C. with free access to food and water. All studies were approved by and performed according to the guidelines of the Institutional Animal Care and Use Committee of the University of Cincinnati.
Whole body composition (fat and lean mass) was measured using NMR technology (EchoMRI, Houston, Tex.).
The peptides were administered daily for two weeks to 11 groups of 8 C57Bl/6 mice by subcutaneous injection at a dose of 10 or 30 nmol/kg. […]

[4] = Table 35, relative to the native hormone

Row | Compound | Glucagon Receptor % relative activity (glucagon receptor) [%] | EC50 (glucagon receptor) [pM] | GIP Receptor % relative activity (GIP receptor) [%] | EC50 (GIP receptor) [pM] | GLP-1 Receptor % relative activity (GLP-1 receptor [1]) [%] | EC50 (GLP-1 receptor [2]) [pM] | % Relative activity at the Receptor for Glucagon (glucagon receptor; [4]) [%] | % Relative activity at the Receptor for GIP (GIP receptor; [4]) [%] | % Relative activity at the Receptor for GLP-1 (GLP-1 receptor [1]; [4]) [%] | agonist activity at the GIP receptor (GIP receptor; text on Table 34) | ability to lower body weight [3]
1 | CC[C@H](C)[C@H](NC(=O)[C@H](Cc1ccccc1)NC(=O)[C@H](CCC(=O)O)NC(=O)[C@H](CCCCN)NC(=O)[C@H](C)NC(=O)[C@H](C)NC(=O)[C@H](CCC(N)=O)NC(=O)[C@H](CCC(=O)O)NC(=O)[C@H](CC(=O)O)NC(=O)[C@H](CC(C)C)NC(=O)[C@H](Cc1ccc(O)cc1)NC(=O)[C@H](CCCCN)NC(=O)[C@H](CO)NC(=O)[C@H](Cc1ccc(O)cc1)NC(=O)[C@H](CC(=O)O)NC(=O)[C@H](CO)NC(=O)[C@@H](NC(=O)[C@H](Cc1ccccc1)NC(=O)[C@@H](NC(=O)CNC(=O)[C@H](CCC(N)=O)NC(=O)C(C)(C)NC(=O)[C@@H](N)Cc1c[nH]cn1)[C@@H](C)O)[C@@H](C)O)C(=O)N[C@@H](CS)C(=O)N[C@@H](Cc1c[nH]c2ccccc12)C(=O)N[C@@H](CC(C)C)C(=O)N[C@@H](CCSC)C(=O)N[C@@H](CC(N)=O)C(=O)NCC(=O)NCC(=O)N1CCC[C@H]1C(=O)N[C@@H](CO)C(=O)N[C@@H](CO)C(=O)NCC(=O)N[C@@H](C)C(=O)N1CCC[C@H]1C(=O)N1CCC[C@H]1C(=O)N1CCC[C@H]1C(=O)N[C@@H](CO)C(=O)N[C@@H](CCCCN)C(N)=O [mt-346] | 3.70 | 954 | 0.34 | 796 | 366.67 | 1.5 |  |  |  |  | 
2 | CC[C@H](C)[C@H](NC(=O)[C@H](Cc1ccccc1)NC(=O)[C@H](CCC(=O)O)NC(=O)[C@H](CCCCN)NC(=O)[C@H](C)NC(=O)[C@H](C)NC(=O)[C@H](CCC(N)=O)NC(=O)C(C)(C)NC(=O)[C@H](CC(=O)O)NC(=O)[C@H](CC(C)C)NC(=O)[C@H](Cc1ccc(O)cc1)NC(=O)[C@H](CCCCN)NC(=O)[C@H](CO)NC(=O)[C@H](Cc1ccc(O)cc1)NC(=O)[C@H](CC(=O)O)NC(=O)[C@H](CO)NC(=O)[C@@H](NC(=O)[C@H](Cc1ccccc1)NC(=O)[C@@H](NC(=O)CNC(=O)[C@H](CCC(N)=O)NC(=O)C(C)(C)NC(=O)[C@@H](N)Cc1c[nH]cn1)[C@@H](C)O)[C@@H](C)O)C(=O)N[C@@H](CS)C(=O)N[C@@H](Cc1c[nH]c2ccccc12)C(=O)N[C@@H](CC(C)C)C(=O)N[C@@H](CCSC)C(=O)N[C@@H](CC(N)=O)C(=O)NCC(=O)NCC(=O)N1CCC[C@H]1C(=O)N[C@@H](CO)C(=O)N[C@@H](CO)C(=O)NCC(=O)N[C@@H](C)C(=O)N1CCC[C@H]1C(=O)N1CCC[C@H]1C(=O)N1CCC[C@H]1C(=O)N[C@@H](CO)C(=O)N[C@@H](CCCCN)C(N)=O [mt-348] (H-H[Aib]QGTFTSDYSKYLD[Aib]QAAKEFICWLMNGGPSSGAPPPSK-NH2) | 8.16 |  | 0.15 |  | 148.65 | 3.7 | 8.2 | 0.2 | 149 |  | 
3 | CC[C@H](C)[C@H](NC(=O)[C@H](CO)NC(=O)[C@H](Cc1ccc(O)cc1)NC(=O)[C@H](CC(=O)O)NC(=O)[C@H](CO)NC(=O)[C@@H](NC(=O)[C@H](Cc1ccccc1)NC(=O)[C@@H](NC(=O)CNC(=O)[C@H](CCC(N)=O)NC(=O)C(C)(C)NC(=O)[C@@H](N)Cc1c[nH]cn1)[C@@H](C)O)[C@@H](C)O)C(=O)N[C@@H](Cc1ccc(O)cc1)C(=O)N[C@@H](CC(C)C)C(=O)N[C@@H](CC(=O)O)C(=O)NC(C)(C)C(=O)N[C@@H](CCC(N)=O)C(=O)N[C@@H](C)C(=O)N[C@@H](C)C(=O)N[C@@H](CCCCN)C(=O)N[C@@H](CCC(=O)O)C(=O)N[C@@H](Cc1ccccc1)C(=O)N[C@H](C(=O)N[C@@H](CC(N)=O)C(=O)N[C@@H](Cc1c[nH]c2ccccc12)C(=O)N[C@@H](CC(C)C)C(=O)N[C@@H](CCSC)C(=O)N[C@@H](CC(N)=O)C(=O)NCC(=O)NCC(=O)N1CCC[C@H]1C(=O)N[C@@H](CO)C(=O)N[C@@H](CO)C(=O)NCC(=O)N[C@@H](C)C(=O)N1CCC[C@H]1C(=O)N1CCC[C@H]1C(=O)N1CCC[C@H]1C(=O)N[C@@H](CO)C(=O)N[C@@H](CCCCN)C(N)=O)C(C)C [mt-361] (H-H[Aib]QGTFTSDYSIYLD[Aib]QAAKEFVNWLMNGGPSSGAPPPSK-NH2) | 3.61 | 1770 | 0.29 | 1050 | 226.35 | 10.9 |  |  |  |  | 
4 | CCCCCCCCCCCCCCCC(=O)NCCCC[C@H](NC(=O)[C@H](CO)NC(=O)[C@@H]1CCCN1C(=O)[C@@H]1CCCN1C(=O)[C@@H]1CCCN1C(=O)[C@H](C)NC(=O)CNC(=O)[C@H](CO)NC(=O)[C@H](CO)NC(=O)[C@@H]1CCCN1C(=O)CNC(=O)CNC(=O)[C@H](CC(N)=O)NC(=O)[C@H](CCSC)NC(=O)[C@H](CC(C)C)NC(=O)[C@H](Cc1c[nH]c2ccccc12)NC(=O)[C@H](CC(N)=O)NC(=O)[C@@H](NC(=O)[C@H](Cc1ccccc1)NC(=O)[C@H](CCC(=O)O)NC(=O)[C@H](CCCCN)NC(=O)[C@H](C)NC(=O)[C@H](C)NC(=O)[C@H](CCC(N)=O)NC(=O)C(C)(C)NC(=O)[C@H](CC(=O)O)NC(=O)[C@H](CC(C)C)NC(=O)[C@H](Cc1ccc(O)cc1)NC(=O)[C@@H](NC(=O)[C@H](CO)NC(=O)[C@H](Cc1ccc(O)cc1)NC(=O)[C@H](CC(=O)O)NC(=O)[C@H](CO)NC(=O)[C@@H](NC(=O)[C@H](Cc1ccccc1)NC(=O)[C@@H](NC(=O)CNC(=O)[C@H](CCC(N)=O)NC(=O)C(C)(C)NC(=O)[C@@H](N)Cc1c[nH]cn1)[C@@H](C)O)[C@@H](C)O)[C@@H](C)CC)C(C)C)C(N)=O [mt-362] (H-H[Aib]QGTFTSDYSIYLD[Aib]QAAKEFVNWLMNGGPSSGAPPPSK(Palmitoyl)-NH2; N-terminus assumed) | 83.17 | 76.8 | 3.95 | 78.2 | 240.96 | 102 |  |  |  | exceptionally potent activity | 
5 | CC[C@H](C)[C@H](NC(=O)[C@H](Cc1ccccc1)NC(=O)[C@H](CCC(=O)O)NC(=O)[C@H](CCCCN)NC(=O)[C@H](C)NC(=O)[C@H](C)NC(=O)[C@H](CCC(N)=O)NC(=O)[C@H](CCC(=O)O)NC(=O)[C@H](CC(=O)O)NC(=O)[C@H](CC(C)C)NC(=O)[C@H](Cc1ccc(O)cc1)NC(=O)[C@H](CCCCN)NC(=O)[C@H](CO)NC(=O)[C@H](Cc1ccc(O)cc1)NC(=O)[C@H](CC(=O)O)NC(=O)[C@H](CO)NC(=O)[C@@H](NC(=O)[C@H](Cc1ccccc1)NC(=O)[C@@H](NC(=O)CNC(=O)[C@H](CCC(N)=O)NC(=O)C(C)(C)NC(=O)[C@@H](N)Cc1c[nH]cn1)[C@@H](C)O)[C@@H](C)O)C(=O)N[C@@H](C)C(=O)N[C@@H](Cc1c[nH]c2ccccc12)C(=O)N[C@@H](CC(C)C)C(=O)N[C@@H](CCSC)C(=O)N[C@@H](CC(N)=O)C(=O)NCC(=O)NCC(=O)N1CCC[C@H]1C(=O)N[C@@H](CO)C(=O)N[C@@H](CO)C(=O)NCC(=O)N[C@@H](C)C(=O)N1CCC[C@H]1C(=O)N1CCC[C@H]1C(=O)N1CCC[C@H]1C(=O)N[C@@H](CO)C(=O)N[C@@H](CCCCN)C(N)=O [mt-363] | 7.76 | 823 | 0.73 | 425 | 671.66 | 3.7 |  |  |  |  | 
6 | HXQGTFTSDYSKYLDEQAAKEFICWLMNT-NH2 [Chimera-2-AIB^2 Cys^24-40 kD] |  |  |  |  |  |  |  |  |  |  | comparable ability to lower body weight
